From US5622947A, “Benzoheterocyclic compounds and vasopressin antagonist and oxytocin antagonist compositions containing a benzoheterocyclic compound” (Otsuka Pharmaceutical Co., Ltd., priority 1992, dated 1997)
Where a name gives a salt, the structure may show the parent alone.

How the values were obtained:
[1] = biological target: T1, V2 Recepter (rat kidney plasma membrane preparations) (Rattus norvegicus, UniProt Q00788); experiment: V2 Recepter binding assay; settings: [3H]-Arg-vasopressin 4×10^-10 M, 4° C., pH 8.0, rat kidney plasma membrane
T1 construct: rat kidney plasma membrane preparations; from tissue; host or cells: rat kidney plasma membranes
T1 sequence (Q00788 whole entry): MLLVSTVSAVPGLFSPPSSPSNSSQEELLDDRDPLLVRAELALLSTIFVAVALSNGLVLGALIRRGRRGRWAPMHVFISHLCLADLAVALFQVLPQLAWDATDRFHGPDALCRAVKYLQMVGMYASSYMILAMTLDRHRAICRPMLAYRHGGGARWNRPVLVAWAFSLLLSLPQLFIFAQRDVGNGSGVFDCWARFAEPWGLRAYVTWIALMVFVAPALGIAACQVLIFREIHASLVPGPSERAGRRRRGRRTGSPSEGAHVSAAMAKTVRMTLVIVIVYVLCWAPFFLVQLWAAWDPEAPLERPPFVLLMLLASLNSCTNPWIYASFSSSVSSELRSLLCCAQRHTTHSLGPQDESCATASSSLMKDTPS
How it was run: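 Rat kidney plasma membranes incubated with [^3H]-Arg-vasopressin (4×10^-10 M) and test compound (10^-10 to 10^-5 M) for 3 h at 4 °C in 100 mM Tris-HCl pH 8.0 with 5 mM MgCl2, 1 mM EDTA, 0.1% BSA. Bound label by filtration and scintillation counting; nonspecific binding with 10^-6 M vasopressin; IC50 reported.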

[2] = biological target: T2, Oxytocin receptor (uterin muscle membrane preparation) (Rattus norvegicus, UniProt P70536); experiment: Oxytocin receptor binding assay; settings: [3H]-oxytocin 10^-9 M, 25°, one hour, pH 8.0, uterin muscle membrane, DES-treated
T2 construct: was homogenized, which was used as a membrane; from tissue; host or cells: uterine muscle membranes from diethylstilbestrol-treated animals
T2 sequence (P70536 1-388): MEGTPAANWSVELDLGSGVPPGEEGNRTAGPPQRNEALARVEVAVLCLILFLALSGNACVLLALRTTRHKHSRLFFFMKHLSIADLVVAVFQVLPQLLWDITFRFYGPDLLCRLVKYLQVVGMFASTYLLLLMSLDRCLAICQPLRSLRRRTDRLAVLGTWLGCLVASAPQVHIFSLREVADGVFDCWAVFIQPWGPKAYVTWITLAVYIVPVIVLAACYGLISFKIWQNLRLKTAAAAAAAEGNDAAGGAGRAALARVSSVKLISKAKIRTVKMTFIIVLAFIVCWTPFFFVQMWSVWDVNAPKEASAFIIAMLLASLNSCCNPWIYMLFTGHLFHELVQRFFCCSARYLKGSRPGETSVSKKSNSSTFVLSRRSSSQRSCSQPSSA
How it was run: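 Rat uterine membranes (0.2 mg; DES-primed day before) incubated 1 h at 25° with [3H]-oxytocin (10^-9 M) and compound (10^-9 to 10^-5 M) in 100 mM Tris-HCl pH 8.0, 5 mM MgCl2, 1 mM EDTA, 0.1% BSA. Filter-bound radioactivity counted; nonspecific with 5×10^-6 M oxytocin; IC50 reported.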

[3] = biological target: T3, V1 Recepter (rat liver plasma membrane preparations) (Rattus norvegicus, UniProt P30560); experiment: V1 Recepter binding assay; settings: [3H]-Arg-vasopressin 2×10^-10 M, 37° C., 10 minutes, pH 8.0, rat liver plasma membrane
T3 construct: rat liver plasma membrane preparations; from tissue; host or cells: rat liver plasma membranes
T3 sequence (P30560 whole entry): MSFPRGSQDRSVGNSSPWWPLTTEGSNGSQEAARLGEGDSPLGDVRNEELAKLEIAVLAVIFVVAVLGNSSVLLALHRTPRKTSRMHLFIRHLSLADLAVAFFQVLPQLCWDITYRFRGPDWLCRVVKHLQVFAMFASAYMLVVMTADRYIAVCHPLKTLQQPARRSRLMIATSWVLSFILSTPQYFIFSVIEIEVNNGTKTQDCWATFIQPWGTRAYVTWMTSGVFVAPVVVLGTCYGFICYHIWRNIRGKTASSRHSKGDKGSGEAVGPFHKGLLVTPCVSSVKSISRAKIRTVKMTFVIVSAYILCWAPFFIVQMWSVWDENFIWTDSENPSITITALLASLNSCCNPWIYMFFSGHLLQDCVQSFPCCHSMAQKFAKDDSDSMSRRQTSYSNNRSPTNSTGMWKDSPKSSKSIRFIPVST
How it was run: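 Rat liver plasma membranes incubated with [3H]-Arg-vasopressin (2×10^-10 M) and compound (10^-8 to 10^-4 M) for 10 min at 37° C in Tris-HCl pH 8.0 with MgCl2, EDTA, BSA. Bound label separated by glass-fibre filtration, scintillation counted; nonspecific binding with 10^-6 M vasopressin; IC50 reported.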

IC50 [1] [nM]	IC50 [2] [nM]	IC50 [3] [nM]	Compound
61	1640	41	COc1cc(NC(=O)c2ccccc2Br)ccc1C(=O)N1CCCC(OCCNS(=O)(=O)C(F)(F)F)c2cc(Cl)ccc21 (stereo not drawn) [Example 152, 5-(2-Trifluoromethylsulfonylaminoethoxy)-7-chloro-1-[2-methoxy-4-(2-bromobenzoylamino)benzoyl]-2,3,4,5-tetrahydro-1H-benzoazepine]
5	451	17	CCOC(=O)NCCOC1CCCN(C(=O)c2ccc(NC(=O)c3ccccc3Cl)cc2OC)c2ccc(Cl)cc21 (stereo not drawn) [Example 137, 5-(2-Ethoxycarbonylaminoethoxy)-7-chloro-1-[2-methoxy-4-(2-chlorobenzoylamino)benzoyl]-2,3,4,5-tetrahydro-1H-benzoazepine]
49	72	20	CNC(=S)NCCOC1CCCN(C(=O)c2ccc(NC(=O)c3ccccc3Cl)cc2OC)c2ccc(Cl)cc21 (stereo not drawn) [Example 133, 5-(2-Methylaminothiocarbonylaminoethoxy)-7-chloro-1-[2-methoxy-4-(2-chlorobenzoylamino)benzoyl]-2,3,4,5-tetrahydro-1H-benzoazepine]
3.9	133	5	COc1cc(NC(=O)c2ccccc2Cl)ccc1C(=O)N1CCCC(OCCNS(C)(=O)=O)c2cc(Cl)ccc21 (stereo not drawn) [Example 172, 5-(2-Methanesulfonylaminoethoxy)-7-chloro-1-[2-methoxy-4-(2-chlorobenzoylamino)benzoyl]-2,3,4,5-tetrahydro-1H-benzoazepine]
4.9	146	18	COc1cc(NC(=O)c2ccccc2Cl)ccc1C(=O)N1CCCC(OCCNC(C)=N)c2cc(Cl)ccc21 (stereo not drawn) [Example 135, 5-[2-(1-Iminoethyl)aminoethoxy]-7-chloro-1-[2-methoxy-4-(2-chlorobenzoylamino)benzoyl]-2,3,4,5-tetrahydro-1H-benzoazepine.cndot.hydrochloride]

Continued, compound first:

Compound	IC50 [1] [nM]	IC50 [2] [nM]	IC50 [3] [nM]
COc1cc(NC(=O)c2ccccc2Cl)ccc1C(=O)N1CCCC(OCCNCc2ccccc2)c2cc(Cl)ccc21 (stereo not drawn) [Example 150, 5-(2-Benzylaminoethoxy)-7-chloro-1-[2-methoxy-4-(2-chlorobenzoylamino)benzoyl]-2,3,4,5-tetrahydro-1H-benzoazepine]	9	471	16
COc1cc(NC(=O)c2ccccc2Cl)ccc1C(=O)N1CCCC(NC(=O)c2ccccc2Cl)c2cc(Cl)ccc21 (stereo not drawn) [Example 159, 5-(2-Chlorobenzoylamino)-7-chloro-1-[2-methoxy-4-(2-chlorobenzoylamino)benzoyl]-2,3,4,5-tetrahydro-1H-benzoazepine]	25	1700	280
C=CCN1CCN(C(=O)CC2CCCN(C(=O)c3ccc(NC(=O)c4ccccc4Cl)cc3OC)c3ccc(Cl)cc32)CC1 (stereo not drawn) [Example 81, 5-(4-Allyl-1-piperazinyl)carbonylmethyl-7-chloro-1-[2-methoxy-4-(2-chlorobenzoylamino)benzoyl]-2,3,4,5-tetrahydro-1H-benzoazepine]	10	100	23
COc1cc(C(=O)N2CCCC(OCC(=O)NCCN3CCOCC3)c3cc(Cl)ccc32)ccc1NC(=O)c1ccccc1Br (stereo not drawn) [Example 168, 5-(2-Morpholinoethyl)aminocarbonylmethoxy-7-chloro-1-[3-methoxy-4-(2-bromobenzoylamino)benzoyl]-2,3,4,5-tetrahydro-1H-benzoazepine]	19	85	10
COc1cc(NC(=O)c2ccccc2Cl)ccc1C(=O)N1CCCC(CC(=O)NCCN(C)CCO)c2cc(Cl)ccc21 (stereo not drawn) [Example 160, 5-{2-[N-(2-Hydroxyethyl)-N-methylamino]ethyl}-aminocarbonylmethyl-7-chloro-1-[2-methoxy-4-(2-chlorobenzoylamino)benzoyl]-2,3,4,5-tetrahydro-1H-benzoazepine]	3.3	84	6
